According to patent US6664253B2, “Neurokinin antagonists” (Boehringer Ingelheim Pharma KG, priority 2000, dated 2003):
pKi: −log10 of the molar value.

Target: T1, NK1-receptor (substance P-receptor) (Homo sapiens, UniProt P25103)
T1 construct: expressed in transfected cells; host or cells: IM-9 human lymphoblastoma cells
Assay: NK1-receptor affinity, displacement of 125I-labelled substance P on IM-9 cells
Assay type: binding
Settings: human lymphoblastoma cells (IM-9) with cloned NK1-receptors
Description: The receptor affinity to the NK1-receptor (substance P-receptor) is determined on human lymphoblastoma cells (IM-9) with cloned NK1-receptors, by measuring the displacement of ^125I-labelled substance P. The Ki-values thus obtained show the efficacy of the compounds.

T1 sequence (P25103 whole entry): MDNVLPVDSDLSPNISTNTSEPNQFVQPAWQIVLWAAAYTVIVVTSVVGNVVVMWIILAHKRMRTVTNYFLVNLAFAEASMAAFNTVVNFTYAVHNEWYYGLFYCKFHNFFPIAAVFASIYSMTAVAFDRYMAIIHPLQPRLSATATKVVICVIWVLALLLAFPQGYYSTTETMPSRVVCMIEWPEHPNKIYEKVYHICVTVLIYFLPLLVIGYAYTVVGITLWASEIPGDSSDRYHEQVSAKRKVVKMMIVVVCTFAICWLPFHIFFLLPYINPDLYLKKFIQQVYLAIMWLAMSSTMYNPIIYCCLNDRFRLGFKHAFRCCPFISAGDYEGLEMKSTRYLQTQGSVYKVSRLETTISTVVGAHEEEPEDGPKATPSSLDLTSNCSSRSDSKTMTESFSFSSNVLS

| pKi | Structure (SMILES) |
| --- | --- |
| 9.15 | CNC(=O)NC1CCN(C(C(=O)N(C)CCc2cc(C(F)(F)F)cc(C(F)(F)F)c2)c2ccccc2)CC1 (stereo not drawn) [Example 1, N-[2-(3,5-bis-trifluoromethyl-phenyl)-ethyl]-N-methyl-2-[4-(3-methyl-ureido)-piperidin-1-yl]-2-phenyl-acetamide] |
| 8.77 | CN(CCc1cc(C(F)(F)F)cc(C(F)(F)F)c1)C(=O)[C@H](c1ccccc1)N1CCC(N2CCCOC2=O)CC1 [Example 2, (S)-N-[2-(3,5-bis-trifluoromethyl-phenyl)-ethyl]-N-methyl-2-[4-(2-oxo-[1.3]oxazinan-3-yl)-piperidin-1-yl]-2-phenyl-acetamide] |
| 9.15 | CN(CCc1cc(C(F)(F)F)cc(C(F)(F)F)c1)C(=O)[C@H](c1ccccc1)N1CCC(N2C(=O)COC2=O)CC1 [Example 3] |
| 9.22 | CN(CCc1cc(C(F)(F)F)cc(C(F)(F)F)c1)C(=O)[C@H](c1ccccc1)N1CCC(N2CCC(=O)N(C)C2=O)CC1 [Example 4] |
| 9.22 | CC1CC(=O)N(C)C(=O)N1C1CCN([C@H](C(=O)N(C)CCc2cc(C(F)(F)F)cc(C(F)(F)F)c2)c2ccccc2)CC1 (stereo partly drawn) [Example 5] |
| 8.46 | CN(CCc1cc(C(F)(F)F)cc(C(F)(F)F)c1)C(=O)[C@H](c1ccccc1)N1CCC(N2CCNC2=O)CC1 [Example 6] |
| 9.10 | CN(CCc1cc(C(F)(F)F)cc(C(F)(F)F)c1)C(=O)[C@H](c1ccccc1)N1CCC(NC(=O)Nc2ccccc2)CC1 [Example 7] |
| 6.78 | CC(=O)N1CCN(C2CCN(C(C(=O)NCc3cc(C(F)(F)F)cc(C(F)(F)F)c3)c3ccccc3)CC2)C1=O (stereo not drawn) [Example B-6, reference compound] |
| 6.36 | O=C(Nc1ccccc1)NC1CCN(C(C(=O)NCc2cc(C(F)(F)F)cc(C(F)(F)F)c2)c2ccccc2)CC1 (stereo not drawn) [Example B-7, reference compound] |
